Reference: US6362179B1, “Salts of an optically-active sulfoxide derivative” (Sankyo Company, Limited, priority 1997, dated 2002)

Assays:
NK1 receptors = NK1 receptors (Homo sapiens, UniProt P25103); test: Pharmacological test of antagonistic activity against NK1 receptors in vitro; details: test made by the present inventors
NK1 receptor = target: T1, NK1 receptor (Cavia porcellus, UniProt P30547); test: Inhibitory effect against increased vascular permeability induced by substance P; assay type: in vivo, guinea pig; details: male Hartley guinea pigs; for Inhibitory rate (%) on oral administration at 3.3 mg/kg: 3.3 mg/kg p.o. 1 hour before SP, pigment leakage; for ID50 (mg/kg, p.o.): oral administration 1 hour before SP (1 μg/kg i.v.), Evans blue leakage into primary bronchus
T1 construct: increased vascular permeability induced by substance P (SP), an NK1 receptor agonist; from tissue; host or cells: living male Hartley guinea pig; pigment leakage at the primary bronchus
Protocol: Inhibitory Effect Against Increased Vascular Permeability
The inhibitory effect on increased vascular permeability induced by substance P (SP), an NK1 receptor agonist, was assessed based on the amount of pigment leakage as an index using guinea pigs (body weight: approx. 400 g, male Hartley guinea pigs).
A pigment (Evans blue: 40 mg/kg) was administered to the femoral vein of a guinea pig anesthetized with pentobarbital (30 mg/kg, i.p.) and immediately after that, SP (1 μg/kg) was intravenously injected to induce accentuation of vascular permeability. Fifteen minutes after the injection, the guinea pig was sacrificed under anesthesia with chloroform and the amount of the pigment leaked into the primary bronchus site was measured in accordance with Harada's method (J. Pharm. Pharmacol. 23, 218(1971)). A test substance was suspended in a 0.5% tragacanth suspension and orally administered to a guinea pig 1 hour before induction by SP. Its inhibitory action was determined by the ratio of the pigment leaked from the test-substance-administered group to that from the non-administered group. In Table 1, 50% inhibitory dose (ID50) and inhibitory rate in the case of oral administration at 3.3 mg/kg are shown.

NK2 receptor = target: T2, NK2 receptor (Cavia porcellus, UniProt Q64077); test: Inhibitory effect against bronchoconstriction induced with [Nle10]-NKA[4-10]; assay type: in vivo, guinea pig; details: for ID50 (mg/kg, p.o.): male Hartley guinea pigs, oral administration one hour before [Nle10]-NKA[4-10] (4 μg/kg i.v.), AUC of airway pressure
T2 construct: bronchoconstriction induced with [Nle^10]-NKA[4-10], an NK2 receptor agonist; from tissue; host or cells: living male Hartley guinea pig; airway pressure (Konzett-Roessler)
T2 sequence (Q64077 1-402): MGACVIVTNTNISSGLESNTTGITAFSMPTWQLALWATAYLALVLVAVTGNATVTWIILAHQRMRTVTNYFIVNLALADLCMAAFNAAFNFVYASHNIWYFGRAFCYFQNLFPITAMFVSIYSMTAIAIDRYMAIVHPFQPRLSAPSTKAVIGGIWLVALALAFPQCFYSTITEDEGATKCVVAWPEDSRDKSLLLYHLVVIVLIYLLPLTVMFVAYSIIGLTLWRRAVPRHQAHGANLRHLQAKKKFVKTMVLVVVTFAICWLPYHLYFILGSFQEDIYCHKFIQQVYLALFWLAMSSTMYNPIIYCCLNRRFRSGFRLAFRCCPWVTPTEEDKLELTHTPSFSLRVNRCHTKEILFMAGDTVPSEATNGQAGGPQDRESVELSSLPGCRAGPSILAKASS

T1 sequence (P30547 whole entry): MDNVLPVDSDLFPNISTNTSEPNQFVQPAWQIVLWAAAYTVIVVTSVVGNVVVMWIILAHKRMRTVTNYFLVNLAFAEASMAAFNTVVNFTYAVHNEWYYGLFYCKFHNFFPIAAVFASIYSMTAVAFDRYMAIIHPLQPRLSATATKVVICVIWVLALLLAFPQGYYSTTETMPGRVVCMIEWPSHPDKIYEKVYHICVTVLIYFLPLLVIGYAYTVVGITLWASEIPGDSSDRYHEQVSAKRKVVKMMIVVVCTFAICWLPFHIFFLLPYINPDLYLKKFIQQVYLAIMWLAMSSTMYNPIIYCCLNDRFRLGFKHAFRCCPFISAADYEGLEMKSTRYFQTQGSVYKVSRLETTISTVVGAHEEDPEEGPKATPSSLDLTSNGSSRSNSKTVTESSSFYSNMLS
Sequence of NK1 receptors (P25103 whole entry): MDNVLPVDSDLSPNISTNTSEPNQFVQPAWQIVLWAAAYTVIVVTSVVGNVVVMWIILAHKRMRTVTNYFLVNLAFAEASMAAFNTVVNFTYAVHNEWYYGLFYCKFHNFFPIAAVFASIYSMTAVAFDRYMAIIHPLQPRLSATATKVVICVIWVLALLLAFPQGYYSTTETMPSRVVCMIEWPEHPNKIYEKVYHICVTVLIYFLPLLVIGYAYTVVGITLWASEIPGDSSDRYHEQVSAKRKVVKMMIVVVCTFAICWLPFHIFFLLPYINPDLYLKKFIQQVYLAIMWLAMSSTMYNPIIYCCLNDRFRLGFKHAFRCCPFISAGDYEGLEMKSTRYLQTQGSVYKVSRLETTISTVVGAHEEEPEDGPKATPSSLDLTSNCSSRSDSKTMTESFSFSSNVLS

Row | SMILES | antagonistic activity against NK1 receptors in vitro (NK1 receptors) | Inhibitory rate (%) on oral administration at 3.3 mg/kg (NK1 receptor) [%] | ID50 (mg/kg, p.o.) (NK1 receptor) | ID50 (mg/kg, p.o.) (NK2 receptor) [mg/kg] | ED50 (NK2 receptor; guinea pig, guinea pigs, intravenous injection of test substance, read-out: ID50 (the source's name)) [mg/kg]
1 | CN(C[C@@H](CCN1CCC2(CCc3ccccc32)CC1)c1ccc(Cl)c(Cl)c1)C(=O)c1ccccc1 [B] | markedly weak | – | – | – | –
2 | COc1cc(C(=O)N2CCO[C@](CCN3CCC4(CC3)c3ccccc3C[S@@+]4[O-])(c3ccc(Cl)c(Cl)c3)C2)cc(OC)c1OC.Cl [Compound of Ex. 1, 1-{2-[(2R)-(3,4-Dichlorophenyl)-4-(3,4,5-trimethoxybenzoyl)morpholin-2-yl]ethyl}spiro[benzo(c)thiophene-1(3H),4′-piperidin]-(2S)-oxide hydrochloride] | – | 48.0 | 5.1 mg/kg | 0.51 | –
3 | Cc1cc(C)cc(C(=O)N(C)C[C@@H](CCN2CCC3(CC2)CN(S(C)(=O)=O)c2ccccc23)c2ccc(Cl)c(Cl)c2)c1 [Compound A, reference compound] | – | – | greater than 10 mg/kg | – | > 10
4 | COc1cc(C(=O)N2CCOC(CCN3CCC4(CC3)c3ccccc3C[S+]4[O-])(c3ccc(Cl)c(Cl)c3)C2)cc(OC)c1OC.O=C(O)/C=C/C(=O)O [Compound of Ex. 2, 1-{2-[(2R)-(3,4-Dichlorophenyl)-4-(3,4,5-trimethoxybenzoyl)morpholin-2-yl]ethyl}spiro[benzo(c)thiophene-1(3H),4′-piperidin]-(2S)-oxide fumarate] | – | 46.8 | – | 0.54 | –
